The record followed here is US8921595B2, “Protein Arginine Deiminase inhibitors as novel therapeutics for rheumatoid arthritis and cancer” (University of South Carolina, priority 2009, dated 2014).

The subject of experiment [1] is HL-60 cells. The experiment is described as follows: Cytotoxicity / cell viability (CellTiter 96). In kind it is cell-based, human. The settings on record: 24 h. An excerpt: To further evaluate the […] effects of these compounds, their ability to inhibit the growth of HL60 cells, a leukemic cell line, was characterized. […] Such finding prompted further investigation into this phenomenon and led to the discovery that for the HL-60 cell line, the cells that remained viable were actually being differentiated into non-cancerous granulocytes. Evidence of this differentiation includes the increased expression of PAD4 (FIG. 6).
HL-60 human promyelocytic leukemia cells were obtained from the ATCC (Manassas, Va.). The cells were cultured in RPMI 1640 media supplemented with 10% FBS and 1% Pencillin-Streptomycin, in a 5% CO2 incubator at 37° C. MCF-7 cells were cultured in DMEM media supplemented with 10% FBS and 1% Penicillin-Streptomycin, in a 5% CO2 incubator at 37° C.
HL-60 and MCF-7 cells were grown to confluence (1×10^6 cells/mL) in the appropriate media. […] Cell viability was determined using the CellTiter 96 Non-radioactive Cell Proliferation Assay (Promega). Cell viability was quantified as the percentage of control absorbance. […] When possible, EC50 values were determined by fitting the dose response data to equation 2 using GraFit (version 5.0.11)^33, Fractional Activity=1/(1+([1]/EC50) (eq 2) where [I] is the concentration of inhibitor (e.g., doxorubicin) and EC50 is the concentration of inhibitor that yields half-maximal cell survival. Western Blotting.

In experiment [2] the test system is HL-60 cells. The experiment is described as follows: Combination with doxorubicin, HL-60 cell viability. It is filed as cell-based, human. The settings on record: for effects of doxorubicin in combination: HL-60 cells, combination with doxorubicin; for viability of cancer cells in combination with doxorubicin: in conjunction with doxorubicin. On the procedure:
Although o-F- and o-Cl-amidine show some efficacy for killing cancer derived cells, the overall effects are modest. In light of such results, these inhibitors were tested in a combination with doxorubicin, a known chemotherapeutic that is used for the treatment of numerous cancers, often as part of a combination therapy. In accordance with the present disclosure, the additive effects of doxorubicin was tested with varying concentrations of both o-F- and o-Cl-amidine on HL-60 cell viability.
HL-60 and MCF-7 cells were grown to confluence (1×10^6 cells/mL) in the appropriate media. 50 μL of the MCF-7 cells were plated into each well of a 96 well plate with 40 μL of DMEM. Cells were allowed to adhere to the plate for 15 h at 37° C. and 5% CO2. For the HL-60 cells, 90 μL of the cells were added to each well of a 96 well plate. o-F-amidine, o-Cl-amidine, doxorubicin, or ATRA (10 μL, 100 nM to 100 μM) were added to the plates and allowed to incubate with the cells for 24 h. Cell viability was determined using the CellTiter 96 Non-radioactive Cell Proliferation Assay (Promega). Cell viability was quantified as the percentage of control absorbance. Each condition was performed in triplicate. The use of 1% triton served as a 100% killing control. When possible, EC50 values were determined by fitting the dose response data to equation 2 using GraFit (version 5.0.11)^33, Fractional Activity=1/(1+([1]/EC50) (eq 2) where [I] is the concentration of inhibitor (e.g., doxorubicin) and EC50 is the concentration of inhibitor that yields half-maximal cell survival. Western Blotting.

As for `N=C(CF)NCCC[C@H](NC(=O)c1ccccc1C(=O)O)C(N)=O` [o-F-amidine, N-α-(2-carboxyl)benzoyl-N^5-(2-fluoro-1-iminoethyl)-L-ornithine amide], in experiment [1], the “cell viability in HL-60 cells” value is on record as “reduce cell viability”. In experiment [2], the “effects of doxorubicin in combination” value was “potentiated” and the “viability of cancer cells in combination with doxorubicin” value is “reduced to levels that are undetectable above the background signal”.
The like results for `N=C(CCl)NCCC[C@H](NC(=O)c1ccccc1C(=O)O)C(N)=O` [o-Cl-amidine, N-α-(2-carboxyl)benzoyl-N^5-(2-chloro-1-iminoethyl)-L-ornithine amide] were, in that order, “reduce cell viability”, “potentiated” and “reduced to levels that are undetectable above the background signal”.
